Assay results published in US20250059153A1, “BICYCLIC QUINONES, PHARMACEUTICAL COMPOSITIONS, AND THERAPEUTIC APPLICATIONS” (priority 2022, published 2025).

Tested on: Trypanosoma cruzi trypomastigote
Experiment: Antiparasitic activity against Trypanosoma cruzi trypomastigote (viability by mobility under optical microscope)
Type: cell-based
Settings: LLC-MK2, trypomastigotes from infected LLCMK2 cells, 1×10^7 parasites/mL, 24 h at 37° C.
Description: Antiparasitic Activity Against Trypanosoma cruzi
To evaluate antiparasitic activity against Trypanosoma cruzi trypomastigote, parasites were obtained from the supernatant of infected LLCMK2 cells. Trypomastigote (1×10^7 parasites/mL) was resuspended in DMEM supplemented with 10% FBS. The parasites were incubated in the presence of a compound at 500, 200, 100, 50, 10, 5, 1, 0.5, and 0.25 μM in 96-well plates for 24 h at 37° C. with 5% CO2. After incubation, the viability of the parasites was determined by examining mobility under an optical microscope. See, e.g., Brener, Rev. Inst. Med. Trop. São Paulo. 1962, 4, 389-96.

`Cc1cc(=O)c2occoc=2c1=O` [Compound A1, 6-methylbenzo[b][1,4]dioxine-5,8-dione] was tested, and the EC50 was 2300 ± 300 nM.
